From ChEMBL document CHEMBL3045994, “Design, synthesis, and anticonvulsant evaluation of some novel 1, 3 benzothiazol-2-yl hydrazones/acetohydrazones” (Med Chem Res, 2012)

What was measured:
[1] = test system: Mus musculus; assay: Anticonvulsant activity in Mus musculus albino CF1 (mouse) assessed as protection against 6 Hz psychomotor seizure at 100 mg/kg, ip after 0.5 hr; assay type: functional; settings: route intraperitoneal
[2] = test system: Mus musculus; assay: Neurotoxicity in Mus musculus albino CF1 (mouse) assessed as motor impairment at 300 mg/kg, ip up to 4 hr; assay type: toxicity, organism-based; set-up: dose 300 mg/kg, route intraperitoneal; settings: in vivo
[3] = test system: Mus musculus; assay: Anticonvulsant activity in Mus musculus albino CF1 (mouse) assessed as protection against 6 Hz psychomotor seizure at 100 mg/kg, ip after 1 hr; assay type: functional; settings: route intraperitoneal
[4] = test system: Mus musculus; assay: Neurotoxicity in Mus musculus albino CF1 (mouse) assessed as motor impairment at 100 mg/kg, ip after 0.25 hr; assay type: toxicity, organism-based; set-up: dose 100 mg/kg, route intraperitoneal; settings: in vivo
[5] = Octanol-phosphate buffer partition coefficient, log P of the compound after 24 hr; assay type: physicochemical
[6] = test system: Mus musculus; assay: Neurotoxicity in Mus musculus albino CF1 (mouse) assessed as motor impairment at 100 mg/kg, ip after 1 hr; assay type: toxicity, organism-based; set-up: dose 100 mg/kg, route intraperitoneal; settings: in vivo
[7] = test system: Mus musculus; assay: Neurotoxicity in Mus musculus albino CF1 (mouse) assessed as motor impairment at 100 mg/kg, ip after 0.5 hr; assay type: toxicity, organism-based; set-up: dose 100 mg/kg, route intraperitoneal; settings: in vivo
[8] = test system: Mus musculus; assay: Anticonvulsant activity in Mus musculus albino CF1 (mouse) assessed as protection against 6 Hz psychomotor seizure at 100 mg/kg, ip after 0.25 hr; assay type: functional; settings: route intraperitoneal
[9] = test system: Mus musculus; assay: Anticonvulsant activity in Mus musculus albino CF1 (mouse) assessed as protection against 6 Hz psychomotor seizure at 100 mg/kg, ip after 2 hr; assay type: functional; settings: route intraperitoneal
[10] = test system: Mus musculus; assay: Neurotoxicity in Mus musculus albino CF1 (mouse) assessed as motor impairment at 100 mg/kg, ip after 4 hr; assay type: toxicity, organism-based; set-up: dose 100 mg/kg, route intraperitoneal; settings: in vivo
[11] = test system: Mus musculus; assay: Anticonvulsant activity in Mus musculus albino CF1 (mouse) assessed as protection against 6 Hz psychomotor seizure at 100 mg/kg, ip after 4 hr; assay type: functional; settings: route intraperitoneal
[12] = test system: Mus musculus; assay: Neurotoxicity in Mus musculus albino CF1 (mouse) assessed as motor impairment at 100 mg/kg, ip after 2 hr; assay type: toxicity, organism-based; set-up: dose 100 mg/kg, route intraperitoneal; settings: in vivo

| SMILES | logP at 24 h [5] | Activity [1] | Activity [2] | Activity [3] | Activity [4] | Activity [6] | Activity [7] | Activity [8] | Activity [9] | Activity [10] | Activity [11] | Activity [12] |
| --- | --- | --- | --- | --- | --- | --- | --- | --- | --- | --- | --- | --- |
| O=C(CSc1nc2ccccc2s1)N/N=C/c1ccc(Oc2ccc(Cl)cc2)cc1 | 5.6 | 0% | Non-toxic | 75% | Non-toxic | Non-toxic | Non-toxic | 0% | 25% | Non-toxic | 0% | Non-toxic |
| Cc1cc(Oc2ccc(/C=N/NC(=O)CSc3nc4ccccc4s3)cc2)ccc1Cl | 5.7 | 25% | Non-toxic | 25% | Non-toxic | Non-toxic | Non-toxic | 0% | 0% | Non-toxic | 0% | Non-toxic |
| C(=N\Nc1nc2ccccc2s1)/c1ccc(Oc2ccc3c(c2)OCO3)cc1 | 5 | 25% | Non-toxic | 0% | Non-toxic | Non-toxic | Non-toxic | 0% | 0% | Non-toxic | 0% | Non-toxic |
| O=C(CSc1nc2ccccc2s1)N/N=C/c1ccc(Oc2ccc([N+](=O)[O-])cc2)cc1 | 5.3 | 0% | Non-toxic | 25% | Non-toxic | Non-toxic | Non-toxic | 0% | 0% | Non-toxic | 0% | Non-toxic |
| O=C(CSc1nc2ccccc2s1)N/N=C1\C(=O)Nc2ccccc21 | 3.2 | 75% | Non-toxic | 0% | Non-toxic | Non-toxic | Non-toxic | 0% | 0% | Non-toxic | 0% | Non-toxic |
| Cc1cc(Oc2ccc(/C=N/Nc3nc4ccccc4s3)cc2)ccc1Cl | 5.5 | 0% | Non-toxic | 0% | Non-toxic | Non-toxic | Non-toxic | 25% | 0% | Non-toxic | 0% | Non-toxic |
| O=C(CSc1nc2ccccc2s1)N/N=C/c1ccc(Oc2ccc(Br)cc2)cc1 | 5.7 | 50% | Non-toxic | 75% | Non-toxic | Non-toxic | Non-toxic | 0% | 0% | Non-toxic | 0% | Non-toxic |
| O=C(CSc1nc2ccccc2s1)N/N=C/c1ccc(Oc2ccc3c(c2)OCO3)cc1 | 5.5 |  | Non-toxic |  |  |  |  |  |  |  |  |  |

Further lines, with some results ahead:

| logP at 24 h [5] | SMILES | Activity [1] | Activity [2] | Activity [3] | Activity [4] | Activity [6] | Activity [7] | Activity [8] | Activity [9] | Activity [10] | Activity [11] | Activity [12] |
| --- | --- | --- | --- | --- | --- | --- | --- | --- | --- | --- | --- | --- |
| 5.1 | O=[N+]([O-])c1ccc(Oc2ccc(/C=N/Nc3nc4ccccc4s3)cc2)cc1 | 25% | Non-toxic | 50% | Non-toxic | Non-toxic | Non-toxic | 50% | 0% | Non-toxic | 0% | Non-toxic |
| 5.6 | C(=N\Nc1nc2ccccc2s1)/c1ccc(Oc2ccc3ccccc3c2)cc1 | 0% | Non-toxic | 25% | Non-toxic | Non-toxic | Non-toxic | 25% | 50% | Non-toxic | 0% | Non-toxic |
| 5.4 | Cc1ccc(Oc2ccc(/C=N/Nc3nc4ccccc4s3)cc2)cc1 | 25% | Non-toxic | 0% | Non-toxic | Non-toxic | Non-toxic | 25% | 0% | Non-toxic | 0% | Non-toxic |
| 5.6 | Clc1ccc(Oc2ccc(/C=N/Nc3nc4ccccc4s3)cc2)cc1 | 50% | Non-toxic | 0% | Non-toxic | Non-toxic | Non-toxic | 0% | 25% | Non-toxic | 0% | Non-toxic |
| 5.5 | O=C(CSc1nc2ccccc2s1)N/N=C/c1ccc(Oc2ccc(F)cc2)cc1 | 25% | Non-toxic | 0% | Non-toxic | Non-toxic | Non-toxic | 50% | 0% | Non-toxic | 0% | Non-toxic |
| 5.7 | Cc1ccc(Oc2ccc(/C=N/NC(=O)CSc3nc4ccccc4s3)cc2)cc1 |  | Non-toxic |  |  |  |  |  |  |  |  |  |
| 5.5 | Brc1ccc(Oc2ccc(/C=N/Nc3nc4ccccc4s3)cc2)cc1 | 50% | Non-toxic | 25% | Non-toxic | Non-toxic | Non-toxic | 0% | 50% | Non-toxic | 0% | Non-toxic |
| 5 | Fc1ccc(Oc2ccc(/C=N/Nc3nc4ccccc4s3)cc2)cc1 |  | Non-toxic |  |  |  |  |  |  |  |  |  |
| 5.9 | O=C(CSc1nc2ccccc2s1)N/N=C/c1ccc(Oc2ccc3ccccc3c2)cc1 | 25% | Non-toxic | 0% | Non-toxic | Non-toxic | Non-toxic | 0% | 0% | Non-toxic | 0% | Non-toxic |
| 5.2 | C(=N\Nc1nc2ccccc2s1)/c1ccc(Oc2ccccc2)cc1 | 25% | Non-toxic | 0% | Non-toxic | Non-toxic | Non-toxic | 0% | 50% | Non-toxic | 0% | Non-toxic |
| 5.6 | O=C(CSc1nc2ccccc2s1)N/N=C/c1ccc(Oc2ccccc2)cc1 | 25% | Non-toxic | 50% | Non-toxic | Non-toxic | Non-toxic | 50% | 0% | Non-toxic | 0% | Non-toxic |
| 3.2 | O=C1Nc2ccccc2/C1=N/Nc1nc2ccccc2s1 | 0% | Non-toxic | 25% | Non-toxic | Non-toxic | Non-toxic | 0% | 25% | Non-toxic | 0% | Non-toxic |
